Data reported in patent US12409179B2 (GENEROS BIOPHARMA LTD., priority 2019, dated 2025).

Tests used:
[1] = test system: rat adjuvant-induced arthritis model; assay: Embodiment 2: oral Nib1 and medium-dose methotrexate in rat adjuvant-induced arthritis model (joint score, paw volume, AUC); format: in vivo, Lewis rat; conditions: MTX 0.5 mpk, Nib1 5 mpk, Nib1 5 mpk + MTX 0.5 mpk; for Total area (AUC of changes in paw volume): Embodiment 2, Tofacitinib 5 mpk, in mL·day
[2] = test system: adjuvant-induced arthritis in rats; assay: Embodiment 3: oral Nib1 and methotrexate in adjuvant-induced arthritis in rats (joint score, paw volume, AUC); format: in vivo, Lewis rat; conditions: oral, Tofacitinib 5 mpk, MTX 0.05 mpk, Nib1 1 mpk, Nib1 1 mpk + MTX 0.05 mpk
[3] = test system: rheumatoid arthritis; conditions: cited from earlier work

SMILES: C[C@@H]1CCN(C(=O)CC#N)C[C@@H]1N(C)c1ncnc2[nH]ccc12 [Tofacitinib]
- Relative to G2 percentage (%) (AUC of changes in paw volume) ([1]; Embodiment 2, G2 = Vehicle, Tofacitinib 5 mpk): 44.3%
- Total area (AUC of changes in paw volume) [1]: 16.61
- Clinical scoring of arthritis (sum of the scores of the quadrupedal joints), Average value ([1]; day 0, Tofacitinib 5 mpk): 0
- paw volume (right hind foot), Average value ([1]; day 0, Tofacitinib 5 mpk): 1.01 mL
- Clinical scoring of arthritis (sum of the scores of the quadrupedal joints), Average value ([1]; day 7, Tofacitinib 5 mpk): 0.50
- paw volume (right hind foot), Average value ([1]; day 7, Tofacitinib 5 mpk): 1.57 mL
- Clinical scoring of arthritis (sum of the scores of the quadrupedal joints), Average value ([1]; day 13, Tofacitinib 5 mpk): 1.38
- paw volume (right hind foot), Average value ([1]; day 13, Tofacitinib 5 mpk): 1.80 mL
- Clinical scoring of arthritis (sum of the scores of the quadrupedal joints), Average value ([1]; day 15, Tofacitinib 5 mpk): 3.50
- paw volume (right hind foot), Average value ([1]; day 15, Tofacitinib 5 mpk): 1.81 mL
- Clinical scoring of arthritis (sum of the scores of the quadrupedal joints), Average value ([1]; day 17, Tofacitinib 5 mpk): 4.88
- paw volume (right hind foot), Average value ([1]; day 17, Tofacitinib 5 mpk): 1.85 mL
- Clinical scoring of arthritis (sum of the scores of the quadrupedal joints), Average value ([1]; day 20, Tofacitinib 5 mpk): 5.13
- paw volume (right hind foot), Average value ([1]; day 20, Tofacitinib 5 mpk): 1.90 mL
- Clinical scoring of arthritis (sum of the scores of the quadrupedal joints), Average value ([1]; day 22, Tofacitinib 5 mpk): 5.25
- paw volume (right hind foot), Average value ([1]; day 22, Tofacitinib 5 mpk): 1.89 mL
- Clinical scoring of arthritis (sum of the scores of the quadrupedal joints), Average value ([1]; day 24, Tofacitinib 5 mpk): 4.75
- paw volume (right hind foot), Average value ([1]; day 24, Tofacitinib 5 mpk): 1.81 mL
- Clinical scoring of arthritis (sum of the scores of the quadrupedal joints), Average value ([1]; day 27, Tofacitinib 5 mpk): 4.50
- paw volume (right hind foot), Average value ([1]; day 27, Tofacitinib 5 mpk): 1.76 mL
- Clinical scoring of arthritis (sum of the scores of the quadrupedal joints), Average value ([1]; day 29, Tofacitinib 5 mpk): 4.38
- paw volume (right hind foot), Average value ([1]; day 29, Tofacitinib 5 mpk): 1.74 mL
- Clinical scoring of arthritis (sum of the scores of the quadrupedal joints), Average value ([1]; day 31, Tofacitinib 5 mpk): 4.38
- paw volume (right hind foot), Average value ([1]; day 31, Tofacitinib 5 mpk): 1.71 mL
- Clinical scoring of arthritis (sum of the scores of the quadrupedal joints), Average value ([1]; day 34, Tofacitinib 5 mpk): 4.25
- paw volume (right hind foot), Average value ([1]; day 34, Tofacitinib 5 mpk): 1.01 mL
- Relative to G2 percentage (%) (AUC of changes in paw volume) ([2]; Embodiment 3, G2 = Vehicle): 59.2%
- Area under the curve AUC (ml*day) of changes in paw volume ([2]; Embodiment 3): 11.27 mL·days
- Clinical scoring of arthritis (sum of the scores of the quadrupedal joints), Average value ([2]; day 0): 0.00
- volume of the right hind foot, Average value ([2]; day 0): 1.31 mL
- Clinical scoring of arthritis (sum of the scores of the quadrupedal joints), Average value ([2]; day 8): 0.33
- volume of the right hind foot, Average value ([2]; day 8): 1.40 mL
- Clinical scoring of arthritis (sum of the scores of the quadrupedal joints), Average value ([2]; day 11): 2.67
- volume of the right hind foot, Average value ([2]; day 11): 1.76 mL
- Clinical scoring of arthritis (sum of the scores of the quadrupedal joints), Average value ([2]; day 13): 4.33
- Clinical scoring of arthritis (sum of the scores of the quadrupedal joints), Average value ([2]; day 15): 5.67
- volume of the right hind foot, Average value ([2]; day 15): 2.27 mL
- Clinical scoring of arthritis (sum of the scores of the quadrupedal joints), Average value ([2]; day 18): 6.33
- volume of the right hind foot, Average value ([2]; day 18): 2.40 mL
- Clinical scoring of arthritis (sum of the scores of the quadrupedal joints), Average value ([2]; day 21): 6.22
- volume of the right hind foot, Average value ([2]; day 22): 2.52 mL
- Clinical scoring of arthritis (sum of the scores of the quadrupedal joints), Average value ([2]; day 24): 5.33

SMILES: CN(Cc1cnc2nc(N)nc(N)c2n1)c1ccc(C(=O)N[C@@H](CCC(=O)O)C(=O)O)cc1 [MTX, Methotrexate]
- Total area (AUC of changes in paw volume) [1]: 29.94
- Clinical scoring of arthritis (sum of the scores of the quadrupedal joints), Average value ([1]; day 0, Tofacitinib 5 mpk): 0
- paw volume (right hind foot), Average value ([1]; day 0, Tofacitinib 5 mpk): 1.02 mL
- Clinical scoring of arthritis (sum of the scores of the quadrupedal joints), Average value ([1]; day 7, Tofacitinib 5 mpk): 0.75
- paw volume (right hind foot), Average value ([1]; day 7, Tofacitinib 5 mpk): 1.98 mL
- Clinical scoring of arthritis (sum of the scores of the quadrupedal joints), Average value ([1]; day 13, Tofacitinib 5 mpk): 1.75
- paw volume (right hind foot), Average value ([1]; day 13, Tofacitinib 5 mpk): 2.10 mL
- Clinical scoring of arthritis (sum of the scores of the quadrupedal joints), Average value ([1]; day 15, Tofacitinib 5 mpk): 5.50
- paw volume (right hind foot), Average value ([1]; day 15, Tofacitinib 5 mpk): 2.28 mL
- Clinical scoring of arthritis (sum of the scores of the quadrupedal joints), Average value ([1]; day 17, Tofacitinib 5 mpk): 7.00
- paw volume (right hind foot), Average value ([1]; day 17, Tofacitinib 5 mpk): 2.43 mL
- Clinical scoring of arthritis (sum of the scores of the quadrupedal joints), Average value ([1]; day 20, Tofacitinib 5 mpk): 7.50
- paw volume (right hind foot), Average value ([1]; day 20, Tofacitinib 5 mpk): 2.48 mL
- Clinical scoring of arthritis (sum of the scores of the quadrupedal joints), Average value ([1]; day 22, Tofacitinib 5 mpk): 7.63
- paw volume (right hind foot), Average value ([1]; day 22, Tofacitinib 5 mpk): 2.50 mL
- Clinical scoring of arthritis (sum of the scores of the quadrupedal joints), Average value ([1]; day 24, Tofacitinib 5 mpk): 7.63
- paw volume (right hind foot), Average value ([1]; day 24, Tofacitinib 5 mpk): 2.56 mL
- Clinical scoring of arthritis (sum of the scores of the quadrupedal joints), Average value ([1]; day 27, Tofacitinib 5 mpk): 7.50
- paw volume (right hind foot), Average value ([1]; day 27, Tofacitinib 5 mpk): 2.62 mL
- Clinical scoring of arthritis (sum of the scores of the quadrupedal joints), Average value ([1]; day 29, Tofacitinib 5 mpk): 7.63
- paw volume (right hind foot), Average value ([1]; day 29, Tofacitinib 5 mpk): 2.65 mL
- Clinical scoring of arthritis (sum of the scores of the quadrupedal joints), Average value ([1]; day 31, Tofacitinib 5 mpk): 7.63
- paw volume (right hind foot), Average value ([1]; day 31, Tofacitinib 5 mpk): 2.66 mL
- Clinical scoring of arthritis (sum of the scores of the quadrupedal joints), Average value ([1]; day 34, Tofacitinib 5 mpk): 7.50
- paw volume (right hind foot), Average value ([1]; day 34, Tofacitinib 5 mpk): 1.02 mL
- Area under the curve AUC (ml*day) of changes in paw volume ([2]; Embodiment 3): 19.31 mL·days
- Clinical scoring of arthritis (sum of the scores of the quadrupedal joints), Average value ([2]; day 0): 0.00
- volume of the right hind foot, Average value ([2]; day 0): 1.30 mL
- Clinical scoring of arthritis (sum of the scores of the quadrupedal joints), Average value ([2]; day 8): 0.44
- volume of the right hind foot, Average value ([2]; day 8): 1.38 mL
- Clinical scoring of arthritis (sum of the scores of the quadrupedal joints), Average value ([2]; day 11): 4.33
- volume of the right hind foot, Average value ([2]; day 11): 2.14 mL
- Clinical scoring of arthritis (sum of the scores of the quadrupedal joints), Average value ([2]; day 13): 7.33
- Clinical scoring of arthritis (sum of the scores of the quadrupedal joints), Average value ([2]; day 15): 9.00
- volume of the right hind foot, Average value ([2]; day 15): 2.88 mL
- Clinical scoring of arthritis (sum of the scores of the quadrupedal joints), Average value ([2]; day 18): 10.22
- volume of the right hind foot, Average value ([2]; day 18): 3.14 mL
- Clinical scoring of arthritis (sum of the scores of the quadrupedal joints), Average value ([2]; day 21): 10.78
- Clinical scoring of arthritis (sum of the scores of the quadrupedal joints), Average value ([2]; day 24): 10.89
- main side effects ([3]; rheumatoid arthritis therapy): liver and gastrointestinal toxicity
- patients who stop taking the drug because of side effects ([3]; within a year): about 50%
